Reference: patent publication US10450292B2, “Inhibitors of bacterial RNA polymerase: arylpropanoyl, arylpropenoyl, and arylcyclopropanecarboxyl phloroglucinols” (Rutgers, The State University of New Jersey, priority 2015, dated 2019)
≈ marks a conversion by molar mass, not a printed value.

Assays:
[1] = tested on: Enterococcus faecalis ATCC 19433; assay: Inhibition of bacterial growth in culture, spiral gradient endpoint assay (MIC); format: cell-based; conditions: Enterococcus faecalis, ATCC 19433 /, 16 h, read-out: MIC E. faecalis, Mueller-Hinton II agar, 16 h at 37° C.
Description: J. Microbiol. Meths. […] Int. J. Exp. Clin. Chemother. […] Adv.

[2] = tested on: Staphylococcus aureus ATCC 12600; assay: as above; conditions: Staphylococcus aureus, ATCC12600, 16 h, read-out: MIC S. aureus 12600, Mueller-Hinton II agar, 16 h at 37° C.
[3] = tested on: Escherichia coli D21f2tolC; assay: microbe, parasite or virus in culture; conditions: 16 h, read-out: MIC E. coli D21f2tolC, Mueller-Hinton II agar, 16 h at 37° C.

Row | Compound | MIC [1] [µg/mL] | MIC [2] [µg/mL] | MIC [3] [µg/mL]
1 | Cc1cc(Oc2ccc(Cl)cc2)ccc1C1CC1C(=O)c1c(O)cc(O)cc1O (stereo not drawn) [Example 26, (2-(4-(4-chlorophenoxy)-2-methylphenyl)cyclopropyl)(2,4,6-trihydroxyphenyl)methanone] | 2.1 (≈ 5.11 µM) | 1.4 (≈ 3.41 µM) | 1.4 (≈ 3.41 µM)
2 | Cc1cc(Oc2ccc(F)cc2)ccc1/C=C/C(=O)c1c(O)cc(O)cc1O [Example 27, (E)-3-(4-(4-fluorophenoxy)-2-methylphenyl)-1-(2,4,6-trihydroxyphenyl)prop-2-en-1-one] | 17 (≈ 44.7 µM) | 5.1 (≈ 13.4 µM) | 2.4 (≈ 6.31 µM)
3 | O=C(/C=C/c1ccc(Oc2ccc(C(F)(F)F)cc2)cc1)c1c(O)cc(O)cc1O [Example 28, (E)-3-(4-(4-(trifluoromethyl)phenoxy)phenyl)-1-(2,4,6-trihydroxyphenyl)prop-2-en-1-one] | 6.5 (≈ 15.6 µM) | 3.1 (≈ 7.45 µM) | 2.4 (≈ 5.76 µM)
4 | O=C(c1c(O)cc(O)cc1O)C1CC1c1ccc(Oc2ccc(Cl)cc2Cl)cc1 (stereo not drawn) [Example 29, (2-(4-(2,4-dichlorophenoxy)phenyl)cyclopropyl)(2,4,6-trihydroxyphenyl) methanone] | 2.4 (≈ 5.56 µM) | 1.5 (≈ 3.48 µM) | 1.5 (≈ 3.48 µM)
5 | Cc1cc(Oc2ccccc2)ccc1/C=C/C(=O)c1c(O)cc(O)cc1O [Example 31, (E)-3-(2-methyl-4-phenoxyphenyl)-1-(2,4,6-trihydroxyphenyl)prop-2-en-1-one] | 9.6 (≈ 26.5 µM) | 5.8 (≈ 16 µM) | 1.4 (≈ 3.86 µM)
6 | O=C(/C=C/c1ccc(Oc2ccc(F)cc2)cc1C(F)(F)F)c1c(O)cc(O)cc1O [Example 32, (E)-3-(4-(4-fluorophenoxy)-2-(trifluoromethyl)phenyl)-1-(2,4,6-trihydroxyphenyl)prop-2-en-1-one] | 5.7 (≈ 13.1 µM) | 3.5 (≈ 8.06 µM) | 2.1 (≈ 4.83 µM)
7 | Cc1cc(Oc2ccccc2)ccc1CCC(=O)c1c(O)cc(O)cc1O [Example 33, 3-(2-methyl-4-phenoxyphenyl)-1-(2,4,6-trihydroxyphenyl)propan-1-one] | 7.5 (≈ 20.6 µM) | 4.6 (≈ 12.6 µM) | 1.6 (≈ 4.39 µM)
8 | Cc1cc(Oc2ccc(F)cc2)ccc1CCC(=O)c1c(O)cc(O)cc1O [Example 34, 3-(4-(4-fluorophenoxy)-2-methylphenyl)-1-(2,4,6-trihydroxyphenyl)propan-1-one] | 5.2 (≈ 13.6 µM) | 3.6 (≈ 9.41 µM) | 1.1 (≈ 2.88 µM)
9 | O=C(CCc1ccc(Oc2ccc(C(F)(F)F)cc2)cc1)c1c(O)cc(O)cc1O [Example 35, 3-(4-(4-(trifluoromethyl)phenoxy)phenyl)-1-(2,4,6-trihydroxyphenyl)propan-1-one] | 5.1 (≈ 12.2 µM) | 3.5 (≈ 8.37 µM) | 1.3 (≈ 3.11 µM)
10 | Cc1cc(Oc2ccc(F)cc2)ccc1C1CC1C(=O)c1c(O)cc(O)cc1O (stereo not drawn) [Example 36, (2-(4-(4-fluorophenoxy)-2-methylphenyl)cyclopropyl)(2,4,6-trihydroxyphenyl)methanone] | 4.4 (≈ 11.2 µM) | 2.4 (≈ 6.09 µM) | 1.7 (≈ 4.31 µM)
11 | O=C(CCc1ccc(Oc2ccc(F)cc2)cc1C(F)(F)F)c1c(O)cc(O)cc1O [Example 37, 3-(4-(4-fluorophenoxy)-2-(trifluoromethyl)phenyl)-1-(2,4,6-trihydroxyphenyl)propan-1-one] | 4.4 (≈ 10.1 µM) | 3.5 (≈ 8.02 µM) | 2.4 (≈ 5.5 µM)
12 | COc1ccc(C2CC2C(=O)c2c(O)cc(O)cc2O)cc1 (stereo not drawn) [Example 38, (2-(4-methoxyphenyl)cyclopropyl)(2,4,6-trihydroxyphenyl)methanone] | > 40 | > 40 | > 40
13 | Cc1cc(Oc2ccccc2)ccc1C1CC1C(=O)c1c(O)cc(O)cc1O (stereo not drawn) [Example 39, (2-(2-methyl-4-phenoxyphenyl)cyclopropyl)(2,4,6-trihydroxyphenyl)methanone] | 4.1 (≈ 10.9 µM) | 3.6 (≈ 9.56 µM) | 1.6 (≈ 4.25 µM)
14 | Cc1cc(Oc2ccccc2)ccc1/C=C/C(=O)c1c(O)cc(O)c(Cl)c1O [Example 40, (E)-1-(3-chloro-2,4,6-trihydroxyphenyl)-3-(2-methyl-4-phenoxyphenyl)prop-2-en-1-one] | > 40 | > 40 | 9.4 (≈ 23.7 µM)
15 | Cc1cc(Oc2ccccc2)ccc1CCC(=O)c1c(O)cc(O)c(Cl)c1O [Example 41, 1-(3-chloro-2,4,6-trihydroxyphenyl)-3-(2-methyl-4-phenoxyphenyl)propan-1-one] | 19 (≈ 47.6 µM) | 19 (≈ 47.6 µM) | 9.4 (≈ 23.6 µM)
16 | Cc1cc(Oc2ccccc2)ccc1C1CC1C(=O)c1c(O)cc(O)c(Cl)c1O (stereo not drawn) [Example 42, (3-chloro-2,4,6-trihydroxyphenyl)(2-(2-methyl-4-phenoxyphenyl)cyclopropyl)methanone] | 16 (≈ 38.9 µM) | 14 (≈ 34.1 µM) | 10 (≈ 24.3 µM)
17 | O=C(c1c(O)cc(O)cc1O)C1CC1c1ccc(Oc2ccc(F)cc2F)cc1 (stereo not drawn) [Example 43, (2-(4-(2,4-difluorophenoxy)phenyl)cyclopropyl)(2,4,6-trihydroxyphenyl) methanone] | 8.4 (≈ 21.1 µM) | 6.6 (≈ 16.6 µM) | 2.8 (≈ 7.03 µM)
18 | O=C(c1c(O)cc(O)cc1O)C1CC1c1ccc(Oc2ccc(F)cc2)cc1C(F)(F)F (stereo not drawn) [Example 44, (2-(4-(4-fluorophenoxy)-2-(trifluoromethyl)phenyl)cyclopropyl)(2,4,6-trihydroxyphenyl)methanone] | 1.8 (≈ 4.01 µM) | 1.5 (≈ 3.35 µM) | 1.5 (≈ 3.35 µM)
19 | O=C(CCc1ccc(Oc2ccc(F)cc2)cc1)c1c(O)cc(O)c(Cl)c1O [Example 45, 1-(3-chloro-2,4,6-trihydroxyphenyl)-3-(4-(4-fluorophenoxy)phenyl)propan-1-one] | 11 (≈ 27.3 µM) | 9.6 (≈ 23.8 µM) | 5.2 (≈ 12.9 µM)
20 | O=C(c1c(O)cc(O)c(Cl)c1O)C1CC1c1ccc(Oc2ccc(F)cc2)cc1 (stereo not drawn) [Example 46, (3-chloro-2,4,6-trihydroxyphenyl)(2-(4-(4-fluorophenoxy)phenyl)cyclopropyl)methanone] | 12 (≈ 28.9 µM) | 9.6 (≈ 23.1 µM) | 6.6 (≈ 15.9 µM)
21 | O=C(c1c(O)cc(O)cc1O)C1CC1c1ccc(Cl)cc1C(F)(F)F (stereo not drawn) [Example 47, (2-(4-chloro-2-(trifluoromethyl)phenyl)cyclopropyl)(2,4,6-trihydroxyphenyl)methanone] | 9.6 (≈ 25.8 µM) | 9.6 (≈ 25.8 µM) | 4.8 (≈ 12.9 µM)
22 | O=C(/C=C/c1ccc(Oc2ccc(F)cc2)cc1)c1c(O)cc(O)c(Cl)c1O [Example 48, (E)-1-(3-chloro-2,4,6-trihydroxyphenyl)-3-(4-(4-fluorophenoxy)phenyl)prop-2-en-1-one] | > 40 | > 40 | 20 (≈ 49.9 µM)
23 | O=C(CCc1ccc(Oc2ccc(F)cc2)cc1C(F)(F)F)c1c(O)cc(O)c(Cl)c1O [Example 49, 1-(3-chloro-2,4,6-trihydroxyphenyl)-3-(4-(4-fluorophenoxy)-2-(trifluoromethyl)phenyl)propan-1-one] | 12 (≈ 25.5 µM) | 12 (≈ 25.5 µM) | 12 (≈ 25.5 µM)
24 | Cc1cc(Oc2ccc(F)cc2)ccc1CCC(=O)c1c(O)cc(O)c(Cl)c1O [Example 50, 1-(3-chloro-2,4,6-trihydroxyphenyl)-3-(4-(4-fluorophenoxy)-2-methylphenyl)propan-1-one] | 18 (≈ 43.2 µM) | 16 (≈ 38.4 µM) | 19 (≈ 45.6 µM)
25 | O=C(c1c(O)cc(O)c(Cl)c1O)C1CC1c1ccc(Oc2ccc(F)cc2)cc1C(F)(F)F (stereo not drawn) [Example 51, (3-chloro-2,4,6-trihydroxyphenyl)(2-(4-(4-fluorophenoxy)-2-(trifluoromethyl)phenyl)cyclopropyl)methanone] | 15 (≈ 31.1 µM) | 11 (≈ 22.8 µM) | 16 (≈ 33.1 µM)
